Test: method code SF-AS, from PMID: 4730594
Conditions: pH 7.0
In the case of `O=[N+]([O-])c1cc[n+]([O-])c2ccccc12`, the logD is reported as 1.02. Compound `O=[N+]([O-])c1ccc2ccc[n+]([O-])c2c1` has a logD of 0.36. In the case of `Cc1cccc2c1c([N+](=O)[O-])cc[n+]2[O-]`, the logD is reported as 1.36. With `O=[N+]([O-])c1cc[n+]([O-])c2c([N+](=O)[O-])cccc12` the logD was 0.76. Compound `O=[N+]([O-])c1cccc2c1ccc[n+]2[O-]` has a logD of 0.49. `CC(=O)ONc1ccnc2ccccc12` showed a logD of 0.97. `O=[N+]([O-])c1c(Cl)c[n+]([O-])c2ccccc12` gave a logD of 1.33. For `O=[N+]([O-])c1cccc2ccc[n+]([O-])c12`, the logD was 0.04. In the case of `O=[N+]([O-])c1ccc2c(ccc[n+]2[O-])c1`, the logD is reported as 0.39. Work on `O=[N+]([O-])c1cc2ccccc2[n+]([O-])c1` yielded a logD of 0.56. With `CC(=O)ON=c1ccn(OC(C)=O)c2ccccc12` the logD was 1.04. Compound `CS(=O)(=O)c1cc[n+]([O-])c2ccccc12` has a logD of 0.12. In the case of `O=[N+]([O-])c1ccc2c(c1)c([N+](=O)[O-])cc[n+]2[O-]`, the logD is reported as 0.9. With `O=[N+]([O-])c1cc[n+]([O-])c2c(F)cccc12` the logD was 1. `[O-][n+]1ccc(Cl)c2ccccc21` showed a logD of 1.08. For `Cc1cc([N+](=O)[O-])c2ccccc2[n+]1[O-]`, the logD was 1.25. Compound `Cc1c[n+]([O-])c2ccccc2c1[N+](=O)[O-]` has a logD of 1.06. Compound `Cc1ccc2c([N+](=O)[O-])cc[n+]([O-])c2c1` has a logD of 1.42. Work on `O=c1ccn(O)c2ccccc12` yielded a logD of -0.47. With `O=[N+]([O-])c1cc[n+]([O-])c2ccc(Cl)cc12` the logD was 1.41. For `O=[N+]([O-])c1cccc2c1c([N+](=O)[O-])cc[n+]2[O-]`, the logD was 0.95. `O/N=c1/ccn(O)c2ccccc12` gave a logD of 0. `Cc1cccc2c([N+](=O)[O-])cc[n+]([O-])c12` showed a logD of 1.59. Work on `CCCCc1ccc2c(c1)c([N+](=O)[O-])cc[n+]2[O-]` yielded a logD of 2.08. With `Cc1ccc2c(c1)c([N+](=O)[O-])cc[n+]2[O-]` the logD was 1.43. Work on `NC(=O)Cc1cc[n+]([O-])c2ccccc12` yielded a logD of -0.11. For `CC(C)(C)c1ccc2c(c1)c([N+](=O)[O-])cc[n+]2[O-]`, the logD was 1.51.

From the SangsterLogP compilation
